ChEMBL document CHEMBL1142574, “Identification of radical scavenging compounds in Rhaponticum carthamoides by means of LC-DAD-SPE-NMR” (J Nat Prod, 2005)

Columns and labels:
[1] = system: Radical scavenging activity; assay: Antioxidant activity assessed as DPPH radical scavenging activity studied at DPPH to compound ratio of 5; assay type: functional; conditions: dose or concentration not given here
[2] = system: Radical scavenging activity; assay: Antioxidant activity assessed as DPPH radical scavenging activity studied at DPPH to compound ratio of 2; assay type: functional; conditions: dose or concentration not given here

Row | SMILES | inhibition [1] | inhibition [2]
1 | Cc1c(C)c2c(c(C)c1O)CCC(C)(C(=O)O)O2 (stereo unspecified) | 79% | 98%
2 | O=C(/C=C/c1ccc(O)c(O)c1)O[C@H](Cc1ccc(O)c(O)c1)C(=O)O | 89% | 98%
3 | CC(=O)OC[C@H]1O[C@@H](Oc2cc3oc(-c4ccc(O)cc4)c(O)c(=O)c3c(O)c2O)[C@H](O)[C@@H](O)[C@@H]1O | 36% | 75%
